Measured values as given in ChEMBL document CHEMBL5236646, “Design, synthesis, and biological evaluation of BRD4 degraders” (Bioorg Med Chem, 2023).
pIC50: −log10 of the molar value. Activity calls are given as the source filed them. The calls are words filed in the database; no cut-off is given here.

Columns and labels:
[1] = system: MV4-11; test: Antiproliferative activity against human […] cells assessed as inhibition of cell growth incubated for 72 hrs MTS assay; assay type: functional, cell-based; settings: MV4-11, 72 h
[2] = system: MM1.S; test: Antiproliferative activity against human MM1.S cells assessed as inhibition of cell growth incubated for 72 hrs MTS assay; assay type: functional, cell-based
[3] = target: T1, Protein cereblon/Bromodomain-containing protein 4 (Homo sapiens) (UniProt O60885+Q96SW2); test: Protac activity at CRBN/BRD4 in human MM1.S cells assessed as induction of BRD4 protein degradation by measuring residual activity at 0.1 uM incubated for 3 hrs by Western blot analysis relative to control; assay type: cell-based
T1 sequence (Q96SW2 whole entry, looked up, other chains not shown): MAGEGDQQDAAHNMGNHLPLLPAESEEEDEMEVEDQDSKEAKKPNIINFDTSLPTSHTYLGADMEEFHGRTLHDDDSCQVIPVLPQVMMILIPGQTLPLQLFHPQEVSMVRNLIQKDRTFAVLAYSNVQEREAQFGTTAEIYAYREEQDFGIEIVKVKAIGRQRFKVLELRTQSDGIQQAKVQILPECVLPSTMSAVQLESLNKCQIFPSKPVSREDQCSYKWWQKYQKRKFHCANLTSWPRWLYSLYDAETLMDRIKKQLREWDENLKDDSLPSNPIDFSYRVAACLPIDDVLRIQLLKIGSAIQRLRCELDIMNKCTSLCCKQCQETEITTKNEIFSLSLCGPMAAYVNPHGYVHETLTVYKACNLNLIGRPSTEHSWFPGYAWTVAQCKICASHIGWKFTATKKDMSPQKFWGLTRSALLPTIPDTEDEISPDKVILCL

[4] = target: T1, Protein cereblon/Bromodomain-containing protein 4 (Homo sapiens); test: Protac activity at CRBN/BRD4 in human MV4-11 cells assessed as induction of BRD4 protein degradation by measuring residual activity at 0.027 uM incubated for 3 hrs by Western blot analysis relative to control; assay type: cell-based
[5] = target: T1, Protein cereblon/Bromodomain-containing protein 4 (Homo sapiens); test: Protac activity at CRBN/BRD4 in human MM1.S cells assessed as downregulation of MYC protein expression at […] incubated for 3 hrs by Western blot analysis; assay type: cell-based
[6] = target: T1, Protein cereblon/Bromodomain-containing protein 4 (Homo sapiens); test: Protac activity at CRBN/BRD4 in human MM1.S cells assessed as induction of BRD4 protein degradation by measuring residual activity at 0.03 uM incubated for 3 hrs by Western blot analysis relative to control; assay type: cell-based
[7] = target: T1, Protein cereblon/Bromodomain-containing protein 4 (Homo sapiens); test: Protac activity at CRBN/BRD4 in human MM1.S cells assessed as induction of BRD4 protein degradation by measuring residual activity at 0.3 uM incubated for 3 hrs by Western blot analysis relative to control; assay type: cell-based
[8] = target: T1, Protein cereblon/Bromodomain-containing protein 4 (Homo sapiens); test: Protac activity at CRBN/BRD4 in human MV4-11 cells assessed as induction of BRD4 protein degradation by measuring residual activity at 0.009 uM incubated for 3 hrs by Western blot analysis relative to control; assay type: cell-based
[9] = target: T1, Protein cereblon/Bromodomain-containing protein 4 (Homo sapiens); test: Protac activity at CRBN/BRD4 in human MV4-11 cells assessed as induction of BRD4 protein degradation by measuring residual activity at 0.003 uM incubated for 3 hrs by Western blot analysis relative to control; assay type: cell-based
[10] = target: T1, Protein cereblon/Bromodomain-containing protein 4 (Homo sapiens); test: Protac activity at CRBN/BRD4 in human MM1.S cells assessed as induction of BRD4 protein degradation by measuring residual activity at 0.18 uM incubated for 3 hrs by Western blot analysis relative to control; assay type: cell-based
[11] = target: T1, Protein cereblon/Bromodomain-containing protein 4 (Homo sapiens); test: Protac activity at CRBN/BRD4 in human MM1.S cells assessed as induction of BRD4 protein degradation by measuring residual activity at 0.06 uM incubated for 3 hrs by Western blot analysis relative to control; assay type: cell-based
[12] = target: T1, Protein cereblon/Bromodomain-containing protein 4 (Homo sapiens); test: Protac activity at CRBN/BRD4 in human MV4-11 cells assessed as induction of BRD4 protein degradation by measuring residual activity at 0.005 uM incubated for 3 hrs by Western blot analysis relative to control; assay type: cell-based
[13] = target: T1, Protein cereblon/Bromodomain-containing protein 4 (Homo sapiens); test: Protac activity at CRBN/BRD4 in human MM1.S cells assessed as induction of BRD4 protein degradation by measuring residual activity at 0.02 uM incubated for 3 hrs by Western blot analysis relative to control; assay type: cell-based
[14] = target: T1, Protein cereblon/Bromodomain-containing protein 4 (Homo sapiens); test: Protac activity at CRBN/BRD4 in human MV4-11 cells assessed as induction of BRD4 protein degradation by measuring residual activity at 0.045 uM incubated for 3 hrs by Western blot analysis relative to control; assay type: cell-based
[15] = target: T1, Protein cereblon/Bromodomain-containing protein 4 (Homo sapiens); test: Protac activity at CRBN/BRD4 in human MV4-11 cells assessed as induction of BRD4 protein degradation by measuring residual activity at 0.015 uM incubated for 3 hrs by Western blot analysis relative to control; assay type: cell-based
[16] = Inhibition of TGF-beta induced activation of human MRC5 cells assessed as residual BRD4 protein level at 0.1 uM by Western blot analysis (reference value: 96%); assay type: functional
[17] = Inhibition of TGF-beta induced activation of human MRC5 cells assessed as residual BRD4 protein level at 0.5 uM by Western blot analysis (reference value: 96%); assay type: functional
[18] = target: T1, Protein cereblon/Bromodomain-containing protein 4 (Homo sapiens); test: Protac activity at CRBN/BRD4 in human MM1.S cells assessed as induction of BRD4 protein degradation by measuring residual activity at 0.07 uM incubated for 3 hrs by Western blot analysis relative to control; assay type: cell-based
[19] = target: T1, Protein cereblon/Bromodomain-containing protein 4 (Homo sapiens); test: Protac activity at CRBN/BRD4 in human MM1.S cells assessed as induction of BRD4 protein degradation by measuring residual activity at 0.2 uM incubated for 3 hrs by Western blot analysis relative to control; assay type: cell-based
[20] = target: T1, Protein cereblon/Bromodomain-containing protein 4 (Homo sapiens); test: Protac activity at CRBN/BRD4 in human MV4-11 cells assessed as induction of BRD4 protein degradation by measuring residual activity at 0.01 uM incubated for 3 hrs by Western blot analysis relative to control; assay type: cell-based
[21] = target: T1, Protein cereblon/Bromodomain-containing protein 4 (Homo sapiens); test: Protac activity at CRBN/BRD4 in human MV4-11 cells assessed as induction of BRD4 protein degradation by measuring residual activity at 0.09 uM incubated for 3 hrs by Western blot analysis relative to control; assay type: cell-based
[22] = target: T1, Protein cereblon/Bromodomain-containing protein 4 (Homo sapiens); test: Protac activity at CRBN/BRD4 in human MM1.S cells assessed as induction of BRD4 protein degradation by measuring residual activity at 0.6 uM incubated for 3 hrs by Western blot analysis relative to control; assay type: cell-based
[23] = target: T1, Protein cereblon/Bromodomain-containing protein 4 (Homo sapiens); test: Protac activity at CRBN/BRD4 in human MV4-11 cells assessed as induction of BRD4 protein degradation by measuring residual activity at 0.03 uM incubated for 3 hrs by Western blot analysis relative to control; assay type: cell-based

SMILES | pIC50 [1] | pIC50 [2] | Activity [5] | Activity [18] | Activity [19] | Activity [20] | Activity [21] | Activity [22] | Activity [23] | other results
Cc1sc2c(c1C)C(c1ccc(Cl)cc1)=N[C@@H](CC(=O)NCCCCCNC(=O)c1ccc(COc3cccc4c3C(=O)N(C3CCC(=O)NC3=O)C4=O)cc1)c1nnc(C)n1-2 (stereo partly drawn) | 8.10 | 6.96 | inactive |  |  |  |  |  |  | Activity [3]: 86%; Activity [4]: 56%; Activity [6]: 87%; Activity [7]: 75%; Activity [8]: 96%; Activity [9]: 95%
Cc1sc2c(c1C)C(c1ccc(Cl)cc1)=N[C@@H](CC(=O)OC(C)(C)C)c1nnc(C)n1-2 | 7.38 | 7.21 |  |  |  |  |  |  |  | 
Cc1sc2c(c1C)C(c1ccc(Cl)cc1)=N[C@@H](CC(=O)NCCCCNC(=O)c1ccc(COc3cccc4c3CN(C3CCC(=O)NC3=O)C4=O)cc1)c1nnc(C)n1-2 (stereo partly drawn) | 8.00 | 6.86 |  |  |  |  |  |  |  | Activity [10]: 59%; Activity [11]: 98%; Activity [12]: 126%; Activity [13]: 93%; Activity [14]: 95%; Activity [15]: 102%
COC(=O)c1ccc2c(c1)NC(=O)/C2=C(\Nc1ccc(N(C)C(=O)CN2CCN(C)CC2)cc1)c1ccccc1 [NINTEDANIB] |  |  |  |  |  |  |  |  |  | Activity [16]: 88%; Activity [17]: 71%
Cc1sc2c(c1C)C(c1ccc(Cl)cc1)=N[C@@H](CC(=O)NCCCCNC(=O)c1ccc(COc3cccc4c3C(=O)N(C3CCC(=O)NC3=O)C4=O)cc1)c1nnc(C)n1-2 (stereo partly drawn) | 7.60 | 6.53 |  | 117% | 97% | 126% | 91% | 87% | 108% | 
Cc1sc2c(c1C)C(c1ccc(Cl)cc1)=N[C@@H](CC(=O)NCCCNC(=O)c1ccc(COc3cccc4c3C(=O)N(C3CCC(=O)NC3=O)C4=O)cc1)c1nnc(C)n1-2 (stereo partly drawn) | 7.55 | 6.52 | inactive | 126% | 108% | 89% | 78% | 84% | 66% | 
